Converted amounts (≈) assume the structure as drawn. Values belong to the molecule of their own block, whether it stands above or below them.
Legend:
Type in all cases: cell-based
C8166 cells = assay: Cytotoxicity on C8166 cells (MTT colorimetric assay); conditions: 72 h
Description: (§1) C8166 was one of the host cells for HIV-1. 100 μl of 4×10^5/ml cells were seeded on microtiter plate, 100 μl of various concentrations of concentricolide were added and incubated at 37° C. in a humidified atmosphere of 5% CO2 for 72 h. The cellular toxicity was assessed by MTT calorimetric assay. The plates were read on Bio-Tek ELx 800 ELISA reader at 595/630 nm (OD595/630 nm). 50% cytotoxic concentration (CC50) was calculated as follows: Cell viability %=(ODexp−ODblank)/(ODcontrol−ODblank)×100.

HIV-1IIIB = assay: Cytopathic effect (CPE) inhibition assay on HIV-1 infected C8166 cells
Description: To 100 μl of a culture medium containing corresponding concentration of concentricolide A from example 1 were added C8166 cells (4×10^5/ml) and HIV-1IIIB at a multiplicity of infection (M.O.I) of 0.06. The final volume was 200 μl. AZT was used as positive drug control. The plates were incubated in a humidified incubator at 37° C. and 5% CO2. After 3 days of culture, the cytopathic effect was measured by counting the number of syncytia in each well under an inverted microscope. EC50 (50% Effective Concentration) was the compound concentration inhibiting 50% of syncytia formation. The cytopathic effect (CPE) inhibition %=(1-number of syncytiaexp/number of syncytiacontrol)×100.

[1] = Cytotoxicity on C8166 cells (MTT colorimetric assay); conditions: human, read-out: CC50 (50% cytotoxic concentration)
Description: as §1

[2] = system: binding and fusion between HIV-1 and cells; assay: microbe, parasite or virus in culture; conditions: C8166 + HIV-1 chronically infected H9 cells, 24 h, syncytia formation
Description: When HIV infected cells were co-cultured with normal T lymphocyte cells, the exterior envelope glycoprotein gp120 expressed on infected cells was bound to the cellular CD4 receptor of the uninfected CD4^+ cells, following fusion of cells and formation of syncytia. Compounds target to this site would inhibit the syncytia formation. Thus, this method could be used to detect whether the compounds have effect on binding and fusion between virus and host cell. Concentricolide A in example 1 was diluted by five fold on 96-well microtiter plate, 3 repeated wells in each gradient, 100 μl per well. Negative control well free of compounds and T-20 positive control well were set up. Then, 50 μl of C8166 cells at logarithmic growth period (6×10^5/ml) and 50 μl of HIV-1 chronically infected H9 cells (2×10^5/ml) were added in each well. The plate was cultured in a humidified incubator at 37° C. and 5% CO2 for 24 h, and the syncytial formation was observed under microscope to deduce whether Concentricolide A blocks the fusion process of virus and cell .

EC50, inhibition of cytopathic effect (CPE) of HIV-1 (HIV-1IIIB; C8166 cells, HIV-1IIIB M.O.I. 0.06, 3 days, syncytia count): 0.092 µg/mL
Molecule: Cc1cn([C@H]2C[C@H](N=[N+]=[N-])[C@@H](CO)O2)c(=O)[nH]c1=O [AZT, 3P-azido-3P-deoxythymidine, reference compound]
CC50 (50% cytotoxic concentration) (C8166 cells): 258.88 µg/mL (≈ 969 µM)

EC50 ([2]; Human immunodeficiency virus 1, read-out: EC50, blockage of binding and fusion between HIV-1 and cells): 0.83 µg/mL
EC50 (HIV-1IIIB; Human immunodeficiency virus 1, 72 h, C8166 cells, HIV-1IIIB M.O.I. 0.06, 3 days, syncytia count): 0.31 µg/mL (≈ 1.53 µM)
Molecule: CC[C@@H]1OC(=O)c2c1ccc1ccoc21 [concentricolide A]
CC50 at 72 h [1]: 76.7 µg/mL (≈ 379 µM)
selected index (S.I.) (HIV-1IIIB; against HIV-1 in vitro): 222

Molecule: enfuvirtide
EC50, blockage of fusion of HIV-1 infected cells ([2]; positive control): 0.00602 µg/mL
